Assay results taken from patent publication US10322137B2, “Platinum compounds, compositions, and uses thereof” (PLACON THERAPEUTICS, INC., priority 2014, dated 2019).

Tests used:
[1] = test system: MX-1 human breast cancer xenograft (BRCA1 and BRCA2 mutant); assay: MX-1 human breast cancer xenograft study; type: in vivo, mice
Description: (§1) Tumor measurements were taken twice weekly, using vernier calipers.
(§2) All statistical analyses were performed using GraphPad PRISM®. Version 6.00.
Tumor volumes of MX-1 induced xenografts in mice were measured after multiple intravenous doses of compound 8 at 15 mg/kg at day 1, day 5, day 8 and day 12 (two times per week for two weeks) for the main study group. […] MX-1 cell line is estrogen receptor negative and Her2 normal. It is BRCA1 and BRCA2 mutant: BRCA1 truncating mutation (3363delGAAA) and BRCA2 mutations (16864A>C, Asn289His, and 22184A>G, Asn991Asp). Satellite groups (n=5) were collected on Day 9 for platinum tumor measurements. […] Only one tumor from the 10 mg/kg group began to grow back at on Day 71, with a volume of 39 mm^3 at end of study, Day 75.

H460 tumors = assay: Tumor platinum levels in H460 tumor-bearing nude mice (ICP-MS); type: in vivo; settings: dosed at 4 mg/kg, 24-hour time point
Description: To examine the ability of compounds disclosed herein to accumulate in tumors, a murine cancer model was used. Animals were inoculated with 5×10^5 H460 […] lung cancer cells via subcutaneous injection to the flank. Tumors were allowed to reach an approximate volume of ˜500 mm^3. Animals were then randomized into treatment groups of 3 animals per time point and were dosed at 4 mg/kg. The 24-hour time point was used as a benchmark across compounds.
Tumor platinum levels were determined by inductively coupled plasma mass spectrometry (ICP-MS). Tumors were excised from animals and dissolved in fuming nitric acid (60% w/w) by adding four parts nitric acid to 1 part tumor w/w and heating overnight at 60° C. The resulting digest was diluted 1:10 in ICP-MS analysis buffer (1% nitric acid, 2% Triton® X-100), and directly introduced into the ICP-MS unit by peristaltic pump. The end dilution factor for the samples as introduced to the ICP-MS was 50×.

[2] = target: albumin tryptic peptide T3 (Homo sapiens, UniProt P02768); assay: LC MS/MS analysis with albumin tryptic peptide T3; type: binding; settings: FIG. 11B
From the text: Signals of T3 endogenous conjugates and T3-Compound 8 conjugates were observed and were evidence that Compound 8 binds to T3.

[3] = in vivo
Description: (§3) Platinum concentrations in rat (n=3) and dog (n=3) were both measured in a course of 100 hours and 400 hours, respectively.

[4] = in vivo; remark: listed apart in the source
Description: as §3

[5] = test system: NCI-H520 lung cancer (NSCLC) model; assay: NCI-H520 multiple dose study: tumor volume, platinum levels, IHC and TUNEL; type: in vivo; settings: day 10, FIG. 24 and 25
Description: Tumor volumes and platinum levels were tracked over a course of 32 days after treatment of multiple doses of compound 8 (dosed at days 0, 3, 7 and 10) in lung cancer (NSCLC) model NCI-H520. Compound 8 was dosed at 15 mg/kg.
Cell dedifferentiation and apoptosis were studied with immunohistochemical (IHC) and TUNEL stainings.

[6] = test system: A2780 (ovarian) xenografts; settings: compound 8 at 20 mg/kg, FIG. 20
Description: In these experiments, the ability of compounds to affect the growth of human Calu-6 NSCLC (non-small cell lung cancer) A2780 (ovarian), MIA Paca-2 (pancreatic) and BxPC-3 (pancreatic) xenografts was tested. […] For the MIA Paca-2, BxPC-3 in vivo studies, the tumor material was maintained by serial engraftment in female nude NCR nude mice. To initiate tumor growth, a 1 mm^3 fragment was implanted subcutaneously in the right flank of each test animal. The animals were 9 and 10-11 weeks old at the time the study started for BxPC-3 and MIA Paca-2 models, respectively. For the MX-1 in vivo studies, tumor material was maintained by serial engraftment in athymic nude mice. To initiate tumor growth a 3×3 mm pieces implanted subcutaneously in the right flank of each test animal. The animals were 5 weeks old at the time of implantation.
Tumor measurements were taken twice weekly, using vernier calipers. Tumor volume was calculated using the formula: V=0.5×width×width×length.
When tumors approached a volume of 100 mm^3, mice were randomized into three groups of ten animals. […] Mice were dosed twice weekly for the duration of the study. […] Twenty-four hours after the final dose tumor volumes were measured again for calculation of tumor growth inhibition. […] Final tumor volumes were analyzed using with a one-way analysis of variance and Tukey multiple comparison test.

[7] = test system: BxPC-3 (pancreatic) xenografts, KRAS wild type; assay: BxPC-3 xenograft tumor growth inhibition; type: in vivo, mice; settings: Table 4-2; compound 5 at 15 mg/kg iv twice weekly
Description: as §1, §2

albumin tryptic peptide T3, sequence (P02768 45-65 limits assumed): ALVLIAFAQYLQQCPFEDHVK

Which results are given for `N.N.[Cl][Pt][Cl]` [Cisplatin, reference compound]?
TGI % at Day 12 ([1]; 3 mg/kg, day 1, 5, 8, 12): 95.1%; tumor regrowth at end of study, Day 75 ([1]; cisplatin treated group, 3 mg/kg): no tumor regrowth; Platinum in tumor (H460 tumors): 0.27 mM/mmole/kg platinum dosed

Which “tumor regrowth at end of study, Day 75” value ([1]; 15 mg/kg group) does the source give for `CC(=O)[O][Pt]([NH2])([NH2])([Cl])([Cl])[O]C(=O)NCCCCCN1C(=O)C=CC1=O` [Compound 8] here?
The value was “no tumor regrowth”.

What about the tumor volume outcome ([1]; day 12) of the same molecule?
The tumor volume outcome was “Tumor disappeared”.

What about the “platinum delivered to the tumor versus cisplatin” value ([1]; satellite groups, Day 9, FIG. 30) of the same molecule?
Its value is “higher concentrations of platinum to the tumor than cisplatin”.

And the “binding to albumin tryptic peptide T3” value [2]?
The value was “binds to T3”.

And the “Half-life Rat” value [3]?
The value was 44 h.

What about the “Half-life Dog” value [4] of the same molecule?
Its value is 174 h.

And the “apoptosis and dedifferentiation (IHC, TUNEL)” value [5]?
The value was “significant and sustained increase in apoptosis and dedifferentiation”.

And the “tumor inhibition versus cisplatin” value [6]?
Its value is “superior efficacy in tumor inhibition compared to cisplatin”.

What does the source list for `O=C1[O][Pt]2([NH][C@@H]3CCCC[C@H]3[NH]2)[O]C1=O` [Oxaliplatin]?
TGI % [7]: 21.0%; Platinum in tumor (H460 tumors): 0.12 mM/mmole/kg platinum dosed

Which Platinum in tumor (H460 tumors) does the source give for “acetate 6-(2,5-dioxo-2H-pyrrol-1(5H)-yl) hexanoate oxaliplatin [Compound 1]” here?
The Platinum in tumor was 0.57 mM/mmole/kg platinum dosed.
